# Measured values from patent US12516092B2, “Peptide ligands of the GDNF family receptor A-like (GFRAL) receptor” (THE TRUSTEES OF THE UNIVERSITY OF PENNSYLVANIA, priority 2019, dated 2026).
# Non-standard residues stand in square brackets, D forms with d. Residues, ends and D or L forms follow the SMILES beside them. No end group written: not given here. Lys(N3) = [N-]=[N+]=NCCCC[C@H](N)C(=O)O
# What was measured:
# [1] = in vitro PK study in rat microsomes; assay type: in vitro ADME
# Method: FIG. 8 is a graph illustrating the results from in vitro PK study of GFRAL receptor antagonist in rat microsomes. […] Reaction velocity (V) was calculated to be 511 uL/1 mg. Intrinsic clearance (Cl-int) was determined to be 339 uL/min/mg protein.
# human GFRAL receptor = target: T1, human GFRAL receptor (Homo sapiens, UniProt Q6UXV0); assay: Cy5-conjugate binding to human GFRAL receptor in vitro, tracked with anti-Cy5 antibody; details: Cy5-conjugate exposed to human GFRAL receptor in vitro
# T1 sequence (Q6UXV0 19-394): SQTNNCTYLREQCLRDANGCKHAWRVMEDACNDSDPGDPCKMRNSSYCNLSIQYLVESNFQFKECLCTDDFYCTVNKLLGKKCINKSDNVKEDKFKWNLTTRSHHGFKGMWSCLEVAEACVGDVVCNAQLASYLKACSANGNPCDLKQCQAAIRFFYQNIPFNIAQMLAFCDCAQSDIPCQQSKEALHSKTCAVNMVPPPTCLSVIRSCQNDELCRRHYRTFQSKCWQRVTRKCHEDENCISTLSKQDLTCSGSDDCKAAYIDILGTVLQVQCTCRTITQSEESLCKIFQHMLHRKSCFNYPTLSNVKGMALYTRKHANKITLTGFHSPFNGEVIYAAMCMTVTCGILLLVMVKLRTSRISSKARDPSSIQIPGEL
# Text: A Cy5-conjugate of GFRAL receptor antagonist was synthesized and exposed to the human GFRAL receptor in vitro and tracked for binding using an anti-Cy5 antibody.
# male rats = assay: Ejaculation studies in rats; assay type: in vivo, rat; details: video recorded for 3 h
# Method: Rats were video recorded for 3 h and the number of spontaneous ejaculations were analyzed by an observer blinded to treatment groups. Without wishing to be bound by theory, GFANT01 may be an agonist of the GFRAL receptor.
# GFRAL receptor = assay: co-localization with the GFRAL receptor in the brainstem (image)
# Text: This technology provides a new route to treat cachexia and chemotherapy induced nausea/vomiting by uniquely blocking the GDF15-GFRAL signaling in the brainstem.
# rats [2] = assay: Nausea/malaise (illness-like behaviors) studies in rats; assay type: in vivo, rat; details: over the course of 24 hours
# Method: (§1) Five potential ligands (GFANT01-GFANT05, SEQ. ID NOs: 1-5, wherein the K* in each peptide is Lysine(N3)) were synthesized. The effects of each of the novel ligands were tested for their ability to alter nausea in rats over the course of 24 hours. […] Animals were given either MIC-1 (30 pmol), the endogenous ligand of GFRAL that suppresses appetites, GFANT05 (300 pmol), or a combination of both and their food intake was monitored for up to 24 hrs (FIG. 5A). […] In addition, kaolin intake, a reliable measure of nausea in rats, was reduced in animals receiving GFANT05 compared to vehicle alone and that of a known nausea-inducing compound (MIC-1) (FIG. 5B). […] Analysis of emetic episodes were measured by an observer blinded to treatment groups.
# rats [3] = assay: kaolin intake study; assay type: in vivo, rat; details: compared to vehicle alone and MIC-1
# Method: (§2) FIG. 5A is a graph of a food intake study performed to evaluate the efficacy of unconjugated GFANT05 peptide (TK*[…]; SEQ ID NO: 5, wherein K* is K azido) to reduce nausea.
# as §1
# rats [4] = assay: food intake study; assay type: in vivo, rat
# Method: as §2, §1
# [5] = target: T2, recombinant human GFRα-like His-tag receptor (Homo sapiens, UniProt Q6UXV0); assay: ELISA binding assay of GDF15 to GFRAL receptor; details: GDF15 run at 100 ng/mL to 0.005 ng/mL; receptor 0.1 μg/mL on nickel coated plate
# T2 construct: purchased R&D 9647-GR-050
# T2 sequence (Q6UXV0 19-394): T1 sequence (Q6UXV0 19-394)
# Method: To validate binding of the synthesized peptides to the GFRAL receptor, an ELISA assay was developed to determine the binding affinity of the peptides for their receptor. The primary antibody (Abcam ab206414) was diluted to 1 μg/mL. The secondary antibody was diluted by placing 5 μL into 10 mL assay buffer. GDF15 was run at concentrations of 100 ng/mL to 0.005 ng/mL. The recombinant human GFRα-like His-tag receptor (R&D 9647-GR-050) was added to the Pierce™ nickel coated plate (ThermoFisher Scientific 15442) at 0.1 μg/mL in a total volume of 100 μL.
compound,measurement,setting,value
CC[C@H](C)[C@H](NC(=O)[C@H](CC(C)C)NC(=O)[C@H](CCC(=O)O)NC(=O)[C@H](CCC(=O)O)NC(=O)[C@H](CCCCN=[N+]=[N-])NC(=O)[C@@H](N)[C@@H](C)O)C(=O)N[C@@H](Cc1c[nH]cn1)C(=O)N[C@@H](C)C(=O)N[C@@H](Cc1c[nH]cn1)C(=O)N[C@@H](C)C(=O)N[C@@H](CC(=O)O)C(=O)N1CCC[C@H]1C(=O)N[C@@H](CCSC)C(=O)N[C@H](C(=O)N[C@@H](CC(C)C)C(=O)N[C@H](C(=O)N[C@@H](CCC(N)=O)C(=O)N[C@@H](CCCCN)C(=O)N[C@H](C(=O)N[C@@H](CC(=O)O)C(=O)N[C@H](C(=O)NCC(=O)N[C@H](C(=O)N[C@@H](CO)C(=O)N[C@@H](CC(C)C)C(=O)N[C@@H](CCC(N)=O)C(=O)N[C@H](C(=O)N[C@@H](Cc1ccc(O)cc1)C(=O)N[C@@H](CC(=O)O)C(=O)O)[C@@H](C)O)C(C)C)[C@@H](C)O)[C@@H](C)O)[C@@H](C)CC)C(C)C [GFRAL receptor antagonist] (H-T[Lys(N3)]EELIHAHADPMVLIQKTDTGVSLQTYD-OH; N-terminus and C-terminus assumed),Reaction velocity (V),[1],511 uL/1 mg
same,half-life,[1],1.74 h
same,microsomal CLint,[1]; read-out: Intrinsic clearance (Cl-int),339 µL/min/mg
"Cy5-conjugate of GFRAL receptor antagonist: Cy5-conjugate of GFRAL receptor antagonist, synthesized for tracking binding with an anti-Cy5 antibody (T[Lys(N3)]EELIHAHADPMVLIQKTDTGVSLQTYD; also: Cy5 conjugate, site not given here)",binding to the GFRAL receptor,human GFRAL receptor,confirming GFRAL receptor antagonist binding to the GFRAL receptor
GFANT01: engineered peptide EDDVSFQK*LDDNVRYHTLRK; may be an agonist of the GFRAL receptor (EDDVSFQ[Lys(N3)]LDDNVRYHTLRK; not fully specified; printed as EDDVSFQK*LDDNVRYHTLRK),spontaneous ejaculation,male rats,result in spontaneous ejaculation
GFANT05: engineered peptide TK*EELIHAHADPMVLIQKTDTGVSLQTYD; GFRAL receptor antagonist (T[Lys(N3)]EELIHAHADPMVLIQKTDTGVSLQTYD),co-localization with the GFRAL receptor,GFRAL receptor,co-localizing with the GFRAL receptor in the brainstem
same,effect on nausea/illness-like behaviors,rats [2],significant effect
same,kaolin intake,rats [3],reduced
same,overall food consumption,"rats [4]; GFANT05 (300 pmol) added to MIC-1 (30 pmol), compared with MIC-1",did not increase overall food consumption over MIC-1
same,food intake,"rats [4]; GFANT05 (300 pmol) alone, 24 hrs post-administration, vs untreated control",ate the same amount of food as untreated control animals
growth and differentiation factor 15 [GDF15],KD,[5],1.03 ng/mL
same,spontaneous ejaculation,male rats,the same effect
